Assay results: PubChem BioAssay AID256 (DTP/NCI, 2004)
Several values for one entry are separate records, joined by “and”; a condition that tells them apart may be missing. Equal values may be shown once. Inconclusive results and toxic doses are left out.

Test system: CD2F1 mice, L1210 leukemia ip, survival T/C
Experiment: NCI In Vivo Anticancer Drug Screen. Data for tumor model L1210 Leukemia (intraperitoneal) in CD2F1 (CDF1) mice
Settings: higher = longer survival
Procedure, shortened: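 Activity against a transplanted murine tumor was judged by comparing the compound group with a vehicle group. The outcome in the treated animals was divided by that in the controls.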

[1] = endpoint: mean survival time, dose: 100.0 mg/kg/injection, schedule: Q01DX001 (ip), vehicle: saline with Tween-80
[2] = endpoint: mean survival time, dose: 100.0 mg/kg/injection, schedule: Q01DX009 (ip), vehicle: saline with Tween-80
[3] = endpoint: mean survival time, dose: 200.0 mg/kg/injection, schedule: Q01DX001 (ip), vehicle: saline with Tween-80
[4] = endpoint: mean survival time, dose: 200.0 mg/kg/injection, schedule: Q01DX009 (ip), vehicle: saline with Tween-80
[5] = endpoint: mean survival time, dose: 400.0 mg/kg/injection, schedule: Q01DX001 (ip), vehicle: saline with Tween-80
[6] = endpoint: mean survival time, dose: 400.0 mg/kg/injection, schedule: Q01DX009 (ip), vehicle: saline with Tween-80
[7] = endpoint: mean survival time, dose: 100.0 mg/kg/injection, schedule: Q04DX002 (ip), vehicle: saline with Tween-80
[8] = endpoint: mean survival time, dose: 200.0 mg/kg/injection, schedule: Q04DX002 (ip), vehicle: saline with Tween-80
[9] = endpoint: mean survival time, dose: 6.25 mg/kg/injection, schedule: Q01DX009 (ip), vehicle: saline with Tween-80
[10] = endpoint: mean survival time, dose: 12.5 mg/kg/injection, schedule: Q01DX009 (ip), vehicle: saline with Tween-80
[11] = endpoint: mean survival time, dose: 25.0 mg/kg/injection, schedule: Q01DX009 (ip), vehicle: saline with Tween-80
[12] = endpoint: mean survival time, dose: 50.0 mg/kg/injection, schedule: Q01DX009 (ip), vehicle: saline with Tween-80
[13] = endpoint: mean survival time, dose: 100.0 mg/kg/injection, schedule: Q04DX003 (ip), vehicle: saline with Tween-80
[14] = endpoint: mean survival time, dose: 200.0 mg/kg/injection, schedule: Q04DX003 (ip), vehicle: saline with Tween-80
[15] = endpoint: mean survival time, dose: 400.0 mg/kg/injection, schedule: Q04DX003 (ip), vehicle: saline with Tween-80
[16] = endpoint: median survival time, dose: 3.12 mg/kg/injection, schedule: Q04DX003 (ip), vehicle: saline
[17] = endpoint: median survival time, dose: 6.25 mg/kg/injection, schedule: Q04DX003 (ip), vehicle: saline
[18] = endpoint: median survival time, dose: 25.0 mg/kg/injection, schedule: Q04DX003 (ip), vehicle: saline
[19] = endpoint: median survival time, dose: 50.0 mg/kg/injection, schedule: Q04DX003 (ip), vehicle: saline

In the case of `Cc1cnc(Cl)c(Br)c1`, the T/C [1] is reported as 96 % of control, the T/C [2] is reported as 104 % of control and the T/C [3] is reported as 101 % of control. The T/C [4] was 100 % of control, the T/C [5] was 95 % of control and the T/C [6] was 106 % of control.
For `Cn1c(=O)ccc2ccccc21`, the T/C [7] was 101 % of control and the T/C [8] was 87 % of control.
For `C[Si](C)(C)O/C=C1\CCCCC1=O`, the T/C [9] was 98 % of control and 100 % of control, the T/C [10] was 96 % of control and 98 % of control and the T/C [11] was 91 % of control and 100 % of control. The T/C [12] was 93 % of control and 100 % of control, the T/C [2] was 93 % of control and 102 % of control and the T/C [4] was 105 % of control.
With `CN(C)/C=N/NC(=O)C(O)c1ccccc1` (stereo not drawn) the T/C [2] was 102 % of control, the T/C [4] was 102 % of control and the T/C [6] was 100 % of control.
`CCOC(=O)c1ccc(NC(=S)NC(=O)c2cccc(Br)c2)cc1` was tested, and the T/C [1] was 101 % of control and 112 % of control, the T/C [2] was 92 % of control and 98 % of control and the T/C [7] was 93 % of control. For the same compound, the T/C [13] was 96 % of control, the T/C [3] was 97 % of control and 101 % of control and the T/C [4] was 94 % of control and 95 % of control. The T/C [8] was 95 % of control, the T/C [14] was 98 % of control and the T/C [5] was 101 % of control. For the same compound, the T/C [6] was 97 % of control and 106 % of control, the T/C (endpoint: mean survival time, dose: 400.0 mg/kg/injection, schedule: Q04DX002 (ip), vehicle: saline with Tween-80) was 96 % of control and the T/C [15] was 93 % of control.
For `O=C(O)CCC(O)C(=O)O.[NH-]C1CCCCC1[NH-].[Pt+2]` (stereo not drawn), the T/C [16] was 120 % of control and 110 % of control, the T/C [17] was 120 % of control and the T/C [18] was 158 % of control. For the same compound, the T/C [19] was 170 % of control and 186 % of control and the T/C (endpoint: median survival time, dose: 100.0 mg/kg/injection, schedule: Q04DX003 (ip), vehicle: saline) was 365 % of control.
For `O=[P+](O)O[P+](=O)O.O=[P+](O)O[P+](=O)O.O=[P+](O)O[P+](=O)O.O=[P+](O)O[P+](=O)O.[Pt].[Pt]`, the T/C [16] was 98 % of control, the T/C [17] was 98 % of control and the T/C (endpoint: median survival time, dose: 12.5 mg/kg/injection, schedule: Q04DX003 (ip), vehicle: saline) was 96 % of control. For the same compound, the T/C [18] was 98 % of control and the T/C [19] was 105 % of control.
In the case of `C1OCC2[CH2][Hg][S][Hg][CH2]C1O2`, the T/C (endpoint: mean survival time, dose: 4.0 mg/kg/injection, schedule: Q01DX015 (ip), vehicle: saline) is reported as 109 % of control and the T/C (endpoint: mean survival time, dose: 8.0 mg/kg/injection, schedule: Q01DX015 (ip), vehicle: saline) is reported as 107 % of control.
`O=C1OC2CC1(O)CC(O)C2O` (stereo not drawn) was tested, and the T/C [1] was 96 % of control and the T/C [3] was 89 % of control.
In the case of `COc1ccc2c(NCCCCCCCCNc3c4ccccc4nc4cc(OC)ccc34)c3ccccc3nc2c1`, the T/C (endpoint: mean survival time, dose: 0.47 mg/kg/injection, schedule: Q01DX009 (ip), vehicle: distilled water + alcohol) is reported as 116 % of control, the T/C (endpoint: mean survival time, dose: 0.94 mg/kg/injection, schedule: Q01DX009 (ip), vehicle: distilled water + alcohol) is reported as 120 % of control and 112 % of control and the T/C (endpoint: mean survival time, dose: 1.87 mg/kg/injection, schedule: Q01DX009 (ip), vehicle: distilled water + alcohol) is reported as 120 % of control. For the same compound, the T/C (endpoint: mean survival time, dose: 1.88 mg/kg/injection, schedule: Q01DX009 (ip), vehicle: distilled water + alcohol) was 113 % of control and 112 % of control, the T/C (endpoint: median survival time, dose: 0.5 mg/kg/injection, schedule: Q01DX009 (ip), vehicle: distilled water + alcohol) was 120 % of control and the T/C (endpoint: median survival time, dose: 1.0 mg/kg/injection, schedule: Q01DX009 (ip), vehicle: distilled water + alcohol) was 118 % of control. The T/C (endpoint: median survival time, dose: 2.0 mg/kg/injection, schedule: Q01DX009 (ip), vehicle: distilled water + alcohol) was 121 % of control and the T/C (endpoint: median survival time, dose: 4.0 mg/kg/injection, schedule: Q01DX009 (ip), vehicle: distilled water + alcohol) was 124 % of control.
In the case of `O=C1c2cccc3c2C2(O)c4c1cccc4C(=O)c1cccc(c12)C3=O`, the T/C (endpoint: mean survival time, dose: 132.0 mg/kg/injection, schedule: Q01DX009 (ip), vehicle: saline with Tween-80) is reported as 104 % of control and the T/C [4] is reported as 121 % of control.
With `C=CCOC(=O)Oc1ccccc1Cl` the T/C [2] was 102 % of control, the T/C [13] was 98 % of control and the T/C [14] was 95 % of control.
With `O=C(O)c1cc(-c2ccccc2)nc2ccccc12` the T/C [1] was 103 % of control, the T/C [3] was 97 % of control and the T/C [5] was 102 % of control.
For `C=C(C)C1Cc2c(ccc3c2OC2COc4cc(OC)c(OC)cc4C2C3=O)O1` (stereo not drawn), the T/C [2] was 92 % of control, the T/C [13] was 103 % of control and the T/C [4] was 93 % of control. The T/C [14] was 101 % of control, the T/C [6] was 94 % of control and the T/C [15] was 97 % of control.
For `COc1ccc2nc3cc(Cl)ccc3c(NCCNCCNCCNc3c4ccc(Cl)cc4nc4ccc(OC)cc34)c2c1`, the T/C (endpoint: mean survival time, dose: 3.12 mg/kg/injection, schedule: Q01DX009 (ip), vehicle: Klucel (hydroxypropylcellulose) (HPC)) was 113 % of control, the T/C (endpoint: mean survival time, dose: 3.12 mg/kg/injection, schedule: Q01DX009 (ip), vehicle: saline with Tween-80) was 96 % of control and the T/C (endpoint: mean survival time, dose: 6.25 mg/kg/injection, schedule: Q01DX009 (ip), vehicle: Klucel (hydroxypropylcellulose) (HPC)) was 116 % of control. For the same compound, the T/C [9] was 96 % of control, the T/C (endpoint: mean survival time, dose: 12.5 mg/kg/injection, schedule: Q01DX009 (ip), vehicle: Klucel (hydroxypropylcellulose) (HPC)) was 101 % of control and the T/C [10] was 102 % of control. For the same compound, the T/C [11] was 103 % of control, the T/C (endpoint: mean survival time, dose: 50.0 mg/kg/injection, schedule: Q01DX009 (ip), vehicle: Klucel (hydroxypropylcellulose) (HPC)) was 90 % of control and the T/C [12] was 106 % of control. The T/C [2] was 106 % of control.
With `COc1cc2cccc(N)c2cc1OC` the T/C (endpoint: mean survival time, dose: 12.5 mg/kg/injection, schedule: Q01DX009 (ip), vehicle: water) was 95 % of control, the T/C (endpoint: mean survival time, dose: 25.0 mg/kg/injection, schedule: Q01DX009 (ip), vehicle: water) was 95 % of control and the T/C (endpoint: mean survival time, dose: 50.0 mg/kg/injection, schedule: Q01DX009 (ip), vehicle: water) was 95 % of control.
With `O=C(O)C1CC1` the T/C (endpoint: mean survival time, dose: 100.0 mg/kg/injection, schedule: Q01DX001 (ip), vehicle: saline) was 96 % of control and the T/C (endpoint: mean survival time, dose: 200.0 mg/kg/injection, schedule: Q01DX001 (ip), vehicle: saline) was 108 % of control.
For `CC(=O)COc1ccc(C)cc1`, the T/C [13] was 105 % of control, the T/C [14] was 96 % of control and the T/C [15] was 98 % of control.
